In PubChem BioAssay AID248 (DTP/NCI, 2004):
Where “and” joins values, the source holds several entries; their conditions need not be identical. Equal values may be shown once. Inconclusive results and toxic doses are left out.

Tested on: L1210 leukemia ip in BDF1 mice, survival T/C
Assay: NCI In Vivo Anticancer Drug Screen. Data for tumor model L1210 Leukemia (intraperitoneal) in B6D2F1 (BDF1) mice
Conditions: endpoint: mean survival time, higher = longer survival
Procedure, shortened: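 Read-out is survival time, reported as the treated-group measurement over the vehicle-control measurement.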

[1] = dose: 100.0 mg/kg/injection, schedule: Q01DX009 (ip), vehicle: Klucel (hydroxypropylcellulose) (HPC)
[2] = dose: 200.0 mg/kg/injection, schedule: Q01DX009 (ip), vehicle: Klucel (hydroxypropylcellulose) (HPC)
[3] = dose: 400.0 mg/kg/injection, schedule: Q01DX009 (ip), vehicle: Klucel (hydroxypropylcellulose) (HPC)
[4] = dose: 50.0 mg/kg/injection, schedule: Q01DX001 (ip), vehicle: carboxymethylcellulose (CMC)
[5] = dose: 100.0 mg/kg/injection, schedule: Q01DX001 (ip), vehicle: carboxymethylcellulose (CMC)
[6] = dose: 200.0 mg/kg/injection, schedule: Q01DX001 (ip), vehicle: carboxymethylcellulose (CMC)
[7] = dose: 400.0 mg/kg/injection, schedule: Q01DX001 (ip), vehicle: carboxymethylcellulose (CMC)
[8] = dose: 100.0 mg/kg/injection, schedule: Q04DX003 (ip), vehicle: Klucel (hydroxypropylcellulose) (HPC)
[9] = dose: 200.0 mg/kg/injection, schedule: Q04DX003 (ip), vehicle: Klucel (hydroxypropylcellulose) (HPC)
[10] = dose: 400.0 mg/kg/injection, schedule: Q04DX003 (ip), vehicle: Klucel (hydroxypropylcellulose) (HPC)

C=C1C(=O)OC2CCC(O)C12 (centres undefined)
T/C (dose: 25.0 mg/kg/injection, schedule: Q01DX001 (ip), vehicle: saline): 94 % of control
T/C (dose: 50.0 mg/kg/injection, schedule: Q01DX001 (ip), vehicle: saline): 108 % of control
T/C (dose: 100.0 mg/kg/injection, schedule: Q01DX001 (ip), vehicle: saline): 105 % of control

CS(=O)(=O)NOCCCCONS(C)(=O)=O
T/C (dose: 100.0 mg/kg/injection, schedule: Q01DX001 (ip), vehicle: saline with Tween-80): 103 % of control
T/C (dose: 200.0 mg/kg/injection, schedule: Q01DX001 (ip), vehicle: saline with Tween-80): 91 % of control
T/C (dose: 400.0 mg/kg/injection, schedule: Q01DX001 (ip), vehicle: saline with Tween-80): 92 % of control

COC12C[C@]34CCCN3CC(O1)c1cc3c(cc1[C@@H]4[C@@H]2O)OCO3
T/C (dose: 25.0 mg/kg/injection, schedule: Q01DX009 (ip), vehicle: saline): 105 % of control
T/C (dose: 50.0 mg/kg/injection, schedule: Q01DX009 (ip), vehicle: saline): 112 % of control

COc1ccc(CCN2COc3ccc4ccc(=O)oc4c3C2)cc1OC
T/C (dose: 100.0 mg/kg/injection, schedule: Q04DX003 (ip), vehicle: saline sonified): 111 % of control
T/C (dose: 200.0 mg/kg/injection, schedule: Q04DX003 (ip), vehicle: saline sonified): 111 % of control
T/C (dose: 400.0 mg/kg/injection, schedule: Q04DX003 (ip), vehicle: saline sonified): 106 % of control

COc1ccc(NC(=O)Oc2ccc(-c3ccccc3)cc2Cl)c(OC)c1
T/C [1]: 97 % of control
T/C [2]: 101 % of control
T/C [3]: 92 % of control

NC(=S)N/N=C/C=N/NC(N)=S
T/C [4]: 97 % of control
T/C [5]: 91 % of control
T/C [6]: 95 % of control
T/C [7]: 101 % of control
T/C (dose: 1.0 micrograms/kg/injection, schedule: Q01DX009 (ip), vehicle: carboxymethylcellulose (CMC)): 107 % of control
T/C (dose: 5.0 micrograms/kg/injection, schedule: Q01DX009 (ip), vehicle: carboxymethylcellulose (CMC)): 98 % of control

COc1ccc(C2NC(=O)N3C(c4ccc(OC)cc4)NC(=O)N23)cc1 (centres undefined)
T/C (dose: 100.0 mg/kg/injection, schedule: Q01DX009 (ip), vehicle: gum acacia): 105 % of control
T/C (dose: 100.0 mg/kg/injection, schedule: Q04DX003 (ip), vehicle: gum acacia): 97 % of control
T/C (dose: 200.0 mg/kg/injection, schedule: Q01DX009 (ip), vehicle: gum acacia): 89 % of control
T/C (dose: 400.0 mg/kg/injection, schedule: Q01DX009 (ip), vehicle: gum acacia): 93 % of control
T/C (dose: 400.0 mg/kg/injection, schedule: Q04DX003 (ip), vehicle: gum acacia): 94 % of control

CC(C)(C)c1cc(C(=S)N2CCN(C(=S)c3cc(C(C)(C)C)c(O)c(C(C)(C)C)c3)CC2)cc(C(C)(C)C)c1O
T/C [8]: 97 % of control
T/C [9]: 94 % of control
T/C [10]: 96 % of control

N#Cc1ccc[n+](CCc2c[nH]c3ccccc23)c1
T/C (dose: 75.0 mg/kg/injection, schedule: Q01DX001 (ip), vehicle: saline): 102 % of control

CCOC(=O)C(C)C1CCCc2c(C)ccc(C)c21 (centres undefined)
T/C [1]: 100 % of control
T/C [8]: 98 % of control
T/C [2]: 102 % of control
T/C [9]: 92 % of control
T/C [3]: 93 % of control
T/C [10]: 98 % of control

CCOC(=O)c1cc2sccc2[nH]1
T/C (dose: 100.0 mg/kg/injection, schedule: Q04DX003 (ip), vehicle: saline with Tween-80): 100 % of control
T/C (dose: 200.0 mg/kg/injection, schedule: Q04DX003 (ip), vehicle: saline with Tween-80): 100 % of control
T/C (dose: 400.0 mg/kg/injection, schedule: Q04DX003 (ip), vehicle: saline with Tween-80): 93 % of control

NC(=S)Nc1cccc(Cl)c1
T/C (dose: 25.0 mg/kg/injection, schedule: Q04DX003 (ip), vehicle: Klucel (hydroxypropylcellulose) (HPC)): 96 % of control
T/C (dose: 50.0 mg/kg/injection, schedule: Q04DX003 (ip), vehicle: Klucel (hydroxypropylcellulose) (HPC)): 100 % of control
T/C [8]: 106 % of control

O=C1NC(=S)S/C1=C/c1ccc2c(c1)OCO2
T/C (dose: 7.5 mg/kg/injection, schedule: Q01DX009 (ip), vehicle: saline with Tween-80): 93 % of control
T/C (dose: 15.0 mg/kg/injection, schedule: Q01DX009 (ip), vehicle: saline with Tween-80): 88 % of control
T/C (dose: 30.0 mg/kg/injection, schedule: Q01DX009 (ip), vehicle: saline with Tween-80): 89 % of control

CCN(CC)C(C)(C)COC(=O)c1ccc([N+](=O)[O-])cc1
T/C (dose: 222.0 mg/kg/injection, schedule: Q01DX Z (ip), vehicle: methylcellulose (MC)): 121 % of control
T/C (dose: 333.0 mg/kg/injection, schedule: Q01DX Z (ip), vehicle: methylcellulose (MC)): 101 % of control
T/C (dose: 500.0 mg/kg/injection, schedule: Q01DX Z (ip), vehicle: methylcellulose (MC)): 96 % of control

COc1cc(C=O)cc(O)c1O
T/C (dose: 62.5 mg/kg/injection, schedule: Q01DX Z (ip), vehicle: saline): 96 % of control
T/C (dose: 500.0 mg/kg/injection, schedule: Q01DX Z (ip), vehicle: saline): 124 % of control

CN(C)C1=C(N2CC2)C(=O)C(N(C)C)=C(N2CC2)C1=O
T/C (dose: 0.09 mg/kg/injection, schedule: Q01DX001 (ip), vehicle: saline): 107 % of control
T/C (dose: 0.09 mg/kg/injection, schedule: Q01DX009 (ip), vehicle: saline): 93 % of control and 116 % of control
T/C (dose: 0.09 mg/kg/injection, schedule: Q04DX003 (ip), vehicle: saline): 94 % of control and 107 % of control
T/C (dose: 0.18 mg/kg/injection, schedule: Q01DX001 (ip), vehicle: saline): 108 % of control
T/C (dose: 0.18 mg/kg/injection, schedule: Q01DX009 (ip), vehicle: saline): 96 % of control and 108 % of control
T/C (dose: 0.37 mg/kg/injection, schedule: Q01DX001 (ip), vehicle: saline): 97 % of control
T/C (dose: 0.37 mg/kg/injection, schedule: Q01DX009 (ip), vehicle: saline): 114 % of control and 116 % of control
T/C (dose: 0.75 mg/kg/injection, schedule: Q01DX001 (ip), vehicle: saline): 98 % of control
T/C (dose: 0.75 mg/kg/injection, schedule: Q01DX009 (ip), vehicle: saline): 110 % of control
T/C (dose: 1.5 mg/kg/injection, schedule: Q01DX001 (ip), vehicle: saline): 115 % of control
T/C (dose: 1.5 mg/kg/injection, schedule: Q01DX009 (ip), vehicle: saline): 93 % of control

CN(CCO)C1=C(N2CC2)C(=O)C(N(C)CCO)=C(N2CC2)C1=O
T/C (dose: 0.12 mg/kg/injection, schedule: Q01DX001 (ip), vehicle: saline): 103 % of control
T/C (dose: 0.12 mg/kg/injection, schedule: Q01DX009 (ip), vehicle: saline): 104 % of control and 105 % of control
T/C (dose: 0.24 mg/kg/injection, schedule: Q04DX003 (ip), vehicle: saline): 119 % of control
T/C (dose: 0.25 mg/kg/injection, schedule: Q01DX001 (ip), vehicle: saline): 100 % of control
T/C (dose: 0.25 mg/kg/injection, schedule: Q01DX009 (ip), vehicle: saline): 121 % of control
T/C (dose: 0.5 mg/kg/injection, schedule: Q01DX001 (ip), vehicle: saline): 112 % of control
T/C (dose: 0.55 mg/kg/injection, schedule: Q04DX003 (ip), vehicle: saline): 122 % of control
T/C (dose: 1.0 mg/kg/injection, schedule: Q01DX009 (ip), vehicle: saline): 184 % of control and 214 % of control
T/C (dose: 1.5 mg/kg/injection, schedule: Q04DX003 (ip), vehicle: saline): 111 % of control
T/C (dose: 3.0 mg/kg/injection, schedule: Q04DX003 (ip), vehicle: saline): 97 % of control

CN(C)/N=C1/CC(=O)CC(C)(C)C1
T/C (dose: 50.0 mg/kg/injection, schedule: Q01DX009 (ip), vehicle: Klucel (hydroxypropylcellulose) (HPC)): 110 % of control
T/C [1]: 100 % of control
T/C [2]: 100 % of control

CCOC(=O)NC(=O)CC
T/C (dose: 100.0 mg/kg/injection, schedule: Q01DX009 (ip), vehicle: saline): 100 % of control
T/C (dose: 100.0 mg/kg/injection, schedule: Q04DX003 (ip), vehicle: saline): 98 % of control
T/C (dose: 200.0 mg/kg/injection, schedule: Q01DX009 (ip), vehicle: saline): 110 % of control
T/C (dose: 200.0 mg/kg/injection, schedule: Q04DX003 (ip), vehicle: saline): 98 % of control
T/C (dose: 400.0 mg/kg/injection, schedule: Q01DX009 (ip), vehicle: saline): 110 % of control
T/C (dose: 400.0 mg/kg/injection, schedule: Q04DX003 (ip), vehicle: saline): 98 % of control

COC(=O)CC(=O)/C(=C/C(C/C=C(\C(=O)CC(=O)OC)C(=O)OC)OC)C(=O)OC (centres undefined)
T/C [4]: 103 % of control
T/C [5]: 101 % of control
T/C [6]: 101 % of control
T/C [7]: 100 % of control

CCO/C=C1\SC(=S)N(CCc2ccc(OC)c(OC)c2)C1=O
T/C [1]: 94 % of control
T/C [8]: 102 % of control
T/C [2]: 93 % of control
T/C [9]: 102 % of control
T/C [3]: 103 % of control
T/C [10]: 102 % of control
